Experimental data published in patent publication US11622970B2, “BCL-2 inhibitors and their use as pharmaceuticals” (PRELUDE THERAPEUTICS INCORPORATED, priority 2020, dated 2023).

Biological target: BCL-2 recombinant protein (Homo sapiens, UniProt P10415)
Assay: Cell free Bcl-2:Bak affinity assay (Bcl-2 Bak), HTRF competition of FAM-Bak peptide
Assay type: binding
Conditions: 4 nM BCL-2 recombinant protein, 100 nM FAM-Bak; for IC50: 10-concentration IC50 mode, read-out: potency (IC50); for inhibition at 1 µM: 1 μM compound, read-out: potency (% inhibition at 1 μM)
Procedure, shortened: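 Compounds in 10-point 3-fold dilution preincubated 10 min at RT with 4 nM GST-BCL-2 (20 mM K phosphate pH 7.5, 50 mM NaCl, 1 mM EDTA, 0.005% Triton X-100), then 100 nM FAM-Bak 10 min, anti-GST-Tb added, 60 min RT dark. HTRF read; % inhibition vs DMSO and positive control, IC50 from curve fit.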

Chain of BCL-2 recombinant protein (P10415 whole entry): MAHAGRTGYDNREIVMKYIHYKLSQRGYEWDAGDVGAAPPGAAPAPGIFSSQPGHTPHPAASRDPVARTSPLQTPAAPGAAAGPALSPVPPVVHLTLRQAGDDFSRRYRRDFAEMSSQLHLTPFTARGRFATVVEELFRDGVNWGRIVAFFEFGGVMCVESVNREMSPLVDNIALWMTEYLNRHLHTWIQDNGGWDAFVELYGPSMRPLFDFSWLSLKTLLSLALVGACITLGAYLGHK

SMILES | IC50 | inhibition at 1 µM
Cc1nn(C)c(C(=O)NS(=O)(=O)c2ccc(N3CCN(CC4=C(c5ccc(Cl)cc5)CC(C)(C)CC4)CC3)cc2Oc2cnc3[nH]ccc3c2)c1C [Example 78, N-[4-[4-[[2-(4-chlorophenyl)-4,4-dimethylcyclohexen-1-yl]methyl]piperazin-1-yl]-2-(1H-pyrrolo[2,3-b]pyridin-5-yloxy)phenyl]sulfonyl-2,4,5-trimethylpyrazole-3-carboxamide] | 100 to 1000 nM | –
CC1(C)CCC(CN2CCN(c3ccc(S(=O)(=O)NC(=O)c4ccc(F)c(-c5ccncc5)n4)cc3)CC2)=C(c2ccc(Cl)cc2)C1 [Example 61, N-[4-[4-[[2-(4-chlorophenyl)-4,4-dimethyl-cyclohexen-1-yl]methyl]piperazin-1-yl]phenyl]sulfonyl-5-fluoro-6-(4-pyridyl)pyridine-2-carboxamide] | – | < 50%
CC1(C)CCC(CN2CCN(c3ccc(S(=O)(=O)NC(=O)c4cnccn4)cc3)CC2)=C(c2ccc(Cl)cc2)C1 [Example 6, N-([4-[4-[[2-(4-chlorophenyl)-4,4-dimethylcyclohexen-1-yl]methyl]piperazin-1-yl]phenyl]sulfonyl)pyrazine-2-carboxamide] | – | 50 to 90%
COc1cc(-c2nc(C(=O)NS(=O)(=O)c3ccc(N4CCN(CC5=C(c6ccc(Cl)cc6)CC(C)(C)CC5)CC4)cc3)ccc2F)ccn1 [Example 55, N-[4-[4-[[2-(4-Chlorophenyl)-4,4-dimethylcyclohexen-1-yl]methyl]piperazin-1-yl]phenyl]sulfonyl-5-fluoro-6-(2-methoxypyridin-4-yl)pyridine-2-carboxamide] | – | 50 to 90%
CC1(C)CCC(CN2CCN(c3ccc(S(=O)(=O)NC(=O)c4ccccn4)cc3)CC2)=C(c2ccc(Cl)cc2)C1 [Example 24, N-([4-[4-[[2-(4-chlorophenyl)-4,4-dimethylcyclohexen-1-yl]methyl]piperazin-1-yl]phenyl]sulfonyl)pyridine-2-carboxamide] | – | 50 to 90%
Cc1cccc(COc2cccc(C(=O)NS(=O)(=O)c3ccc(N4CCN(CC5=C(c6ccc(Cl)cc6)CC(C)(C)CC5)CC4)cc3)c2)c1 [Example 34, N-([4-[4-[[2-(4-chlorophenyl)-4,4-dimethylcyclohexen-1-yl]methyl]piperazin-1-yl]phenyl]sulfonyl)-3-((3-methylbenzyl)oxy)benzamide] | – | 50 to 90%
Cc1c(Cl)c(C(=O)NS(=O)(=O)c2ccc(N3CCN(CC4=C(c5ccc(Cl)cc5)CC(C)(C)CC4)CC3)cc2)cc([N+](=O)[O-])c1NCC1CCOCC1 [Example 42, 2-Chloro-N-([4-[4-[[2-(4-chlorophenyl)-4,4-dimethylcyclohexen-1-yl]methyl]piperazin-1-yl]phenyl]sulfonyl)-3-methyl-5-nitro-4-(tetrahydropyran-4-ylmethylamino)benzamide] | – | > 90%
CC1(C)CCC(CN2CCN(c3ccc(S(=O)(=O)NC(=O)c4ccncc4C(F)(F)F)cc3)CC2)=C(c2ccc(Cl)cc2)C1 [Example 22, N-([4-[4-[[2-(4-chlorophenyl)-4,4-dimethylcyclohexen-1-yl]methyl]piperazin-1-yl]phenyl]sulfonyl)-3-(trifluoromethyl)pyridine-4-carboxamide] | – | 50 to 90%
CC1(C)CCC(CN2CCN(c3ccc(S(=O)(=O)NC(=O)c4ccc([N+](=O)[O-])c(OCc5ccccc5)c4)cc3)CC2)=C(c2ccc(Cl)cc2)C1 [Example 40, 3-(benzyloxy)-N-([4-[4-[[2-(4-chlorophenyl)-4,4-dimethylcyclohexen-1-yl]methyl]piperazin-1-yl]phenyl]sulfonyl)-4-nitrobenzamide] | – | 50 to 90%
CN1C(=O)CCc2cc(C(=O)NS(=O)(=O)c3ccc(N4CCN(CC5=C(c6ccc(Cl)cc6)CC(C)(C)CC5)CC4)cc3)ccc21 [Example 10, N-([4-[4-[[2-(4-chlorophenyl)-4,4-dimethylcyclohexen-1-yl]methyl]piperazin-1-yl]phenyl]sulfonyl)-1-methyl-2-oxo-1,2,3,4-tetrahydroquinoline-6-carboxamide] | – | 50 to 90%
CC1(C)CCC(CN2CCN(c3ccc(S(=O)(=O)NC(=O)c4ccc5ccsc5n4)cc3)CC2)=C(c2ccc(Cl)cc2)C1 [Example 27, N-([4-[4-[[2-(4-chlorophenyl)-4,4-dimethylcyclohexen-1-yl]methyl]piperazin-1-yl]phenyl]sulfonyl)thieno[2,3-b]pyridine-6-carboxamide] | – | 50 to 90%
Cc1c(Cl)c(C(=O)NS(=O)(=O)c2ccc(N3CCN(CC4=C(c5ccc(Cl)cc5)CC(C)(C)CC4)CC3)cc2Oc2cnc3[nH]ccc3c2)cc([N+](=O)[O-])c1OCC1CCOCC1 [Example 81, 2-Chloro-N-[4-[4-[[2-(4-chlorophenyl)-4,4-dimethylcyclohexen-1-yl]methyl]piperazin-1-yl]-2-(1H-pyrrolo[2,3-b]pyridin-5-yloxy)phenyl]sulfonyl-3-methyl-5-nitro-4-(oxan-4-ylmethoxy)benzamide] | < 10 nM | –
CC1(C)CCC(CN2CCN(c3ccc(S(=O)(=O)NC(=O)c4ccc(F)c(-n5ccnc5)n4)cc3)CC2)=C(c2ccc(Cl)cc2)C1 [Example 46, N-[4-[4-[[2-(4-chlorophenyl)-4,4-dimethylcyclohexen-1-yl]methyl]piperazin-1-yl]phenyl]sulfonyl-5-fluoro-6-(1H-imidazol-1-yl)pyridine-2-carboxamide] | – | 50 to 90%

Second part, the molecule after the results:

IC50 | inhibition at 1 µM | SMILES
100 to 1000 nM | – | CC1(C)CCC(CN2CCN(c3ccc(S(=O)(=O)NC(=O)c4ccc(Cl)c(C(F)(F)F)n4)c(Oc4cnc5[nH]ccc5c4)c3)CC2)=C(c2ccc(Cl)cc2)C1 [Example 71, 5-Chloro-N-[4-[4-[[2-(4-chlorophenyl)-4,4-dimethylcyclohexen-1-yl]methyl]piperazin-1-yl]-2-(1H-pyrrolo[2,3-b]pyridin-5-yloxy)phenyl]sulfonyl-6-(trifluoromethyl)pyridine-2-carboxamide]
10 to 100 nM | – | CC1(C)CCC(CN2CCN(c3ccc(S(=O)(=O)NC(=O)c4ccc(CNC5CCOCC5)c([N+](=O)[O-])c4)c(Oc4cnc5[nH]ccc5c4)c3)CC2)=C(c2ccc(Cl)cc2)C1 [Example 96, N-[4-[4-[[2-(4-chlorophenyl)-4,4-dimethylcyclohexen-1-yl]methyl]piperazin-1-yl]-2-(1H-pyrrolo[2,3-b]pyridin-5-yloxy)phenyl]sulfonyl-3-nitro-4-[(oxan-4-ylamino)methyl]benzamide]
100 to 1000 nM | – | CC1(C)CCC(CN2CCN(c3ccc(S(=O)(=O)NC(=O)c4ccc(CN5CCOCC5)c([N+](=O)[O-])c4)c(Oc4cnc5[nH]ccc5c4)c3)CC2)=C(c2ccc(Cl)cc2)C1 [Example 90, N-[4-[4-[[2-(4-chlorophenyl)-4,4-dimethylcyclohexen-1-yl]methyl]piperazin-1-yl]-2-(1H-pyrrolo[2,3-b]pyridin-5-yloxy)phenyl]sulfonyl-4-(morpholin-4-ylmethyl)-3-nitrobenzamide]
10 to 100 nM | – | CC1(C)CCC(CN2CCN(c3ccc(S(=O)(=O)NC(=O)c4ccc(COc5ccc(Cl)cc5)c(F)c4)c(Oc4cnc5[nH]ccc5c4)c3)CC2)=C(c2ccc(Cl)cc2)C1 [Example 83, 4-[(4-Chlorophenoxy)methyl]-N-[4-[4-[[2-(4-chlorophenyl)-4,4-dimethylcyclohexen-1-yl]methyl]piperazin-1-yl]-2-(1H-pyrrolo[2,3-b]pyridin-5-yloxy)phenyl]sulfonyl-3-fluorobenzamide]
10 to 100 nM | – | COCc1cc(C(=O)NS(=O)(=O)c2ccc(N3CCN(CC4=C(c5ccc(Cl)cc5)CC(C)(C)CC4)CC3)cc2Oc2cnc3[nH]ccc3c2)cc([N+](=O)[O-])c1 [Example 85, N-[4-[4-[[2-(4-chlorophenyl)-4,4-dimethylcyclohexen-1-yl]methyl]piperazin-1-yl]-2-(1H-pyrrolo[2,3-b]pyridin-5-yloxy)phenyl]sulfonyl-3-(methoxymethyl)-5-nitrobenzamide]
10 to 100 nM | – | Cc1nc(C(=O)NS(=O)(=O)c2ccc(N3CCN(CC4=C(c5ccc(Cl)cc5)CC(C)(C)CC4)CC3)cc2Oc2cnc3[nH]ccc3c2)ccc1Cl [Example 73, N-[4-[4-[[2-(4-chlorophenyl)-4,4-dimethylcyclohexen-1-yl]methyl]piperazin-1-yl]-2-(1H-pyrrolo[2,3-b]pyridin-5-yloxy)phenyl]sulfonyl-5-chloro-6-methylpyridine-2-carboxamide]
10 to 100 nM | – | Cn1cc(-c2nc(C(=O)NS(=O)(=O)c3ccc(N4CCN(CC5=C(c6ccc(Cl)cc6)CC(C)(C)CC5)CC4)cc3Oc3cnc4[nH]ccc4c3)ccc2F)cn1 [Example 63, N-[4-[4-[[2-(4-Chlorophenyl)-4,4-dimethylcyclohexen-1-yl]methyl]piperazin-1-yl]-2-(1H-pyrrolo[2,3-b]pyridin-5-yloxy)phenyl]sulfonyl-5-fluoro-6-(1-methylpyrazol-4-yl)pyridine-2-carboxamide]
10 to 100 nM | – | Cc1cc(C(=O)NS(=O)(=O)c2ccc(N3CCN(CC4=C(c5ccc(Cl)cc5)CC(C)(C)CC4)CC3)cc2Oc2cnc3[nH]ccc3c2)cc([N+](=O)[O-])c1 [Example 79, N-[4-[4-[[2-(4-chlorophenyl)-4,4-dimethylcyclohexen-1-yl]methyl]piperazin-1-yl]-2-(1H-pyrrolo[2,3-b]pyridin-5-yloxy)phenyl]sulfonyl-3-methyl-5-nitrobenzamide]
10 to 100 nM | – | Cc1cn(C)nc1C(=O)NS(=O)(=O)c1ccc(N2CCN(CC3=C(c4ccc(Cl)cc4)CC(C)(C)CC3)CC2)cc1Oc1cnc2[nH]ccc2c1 [Example 76, N-[4-[4-[[2-(4-chlorophenyl)-4,4-dimethylcyclohexen-1-yl]methyl]piperazin-1-yl]-2-(1H-pyrrolo[2,3-b]pyridin-5-yloxy)phenyl]sulfonyl-1,4-dimethylpyrazole-3-carboxamide]
